ChEMBL document CHEMBL1201862, “PubChem BioAssay data set” (2004)
Active and inactive are the calls of the source.

What was measured:
[1] = Counterscreen for […] of the human trace amine associated receptor 1 (TAAR1): Fluorescence-based cell-based high throughput dose response assay to identify nonselective Ga16 agonists.; assay type: functional
[2] = Counterscreen for antagonists of the human trace amine associated receptor 1 (hTAAR1): Fluorescence-based cell-based high throughput dose response assay to identify nonselective Ga16 antagonists.; assay type: functional
[3] = target: T1, RNA-binding protein pos-1 (Caenorhabditis elegans, UniProt G5EF15); experiment: disruptors of C. elegans POS-1 RNA interaction – biochemical, fluorescence polarization, dose response (AID 1964);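 note: purified POS-1 fused to maltose binding protein made in E. coli; potency of compounds blocking POS-1 binding to fluorescent RNA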
T1 sequence (G5EF15 whole entry): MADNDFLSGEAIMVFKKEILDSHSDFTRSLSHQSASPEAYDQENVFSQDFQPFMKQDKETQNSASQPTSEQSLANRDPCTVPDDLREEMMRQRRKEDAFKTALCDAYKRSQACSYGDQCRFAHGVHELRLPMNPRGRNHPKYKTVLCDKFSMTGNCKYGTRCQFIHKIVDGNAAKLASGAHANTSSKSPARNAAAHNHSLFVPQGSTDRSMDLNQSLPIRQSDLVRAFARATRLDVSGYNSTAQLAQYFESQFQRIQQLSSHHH

BJ [4] = experiment: BJ-TERT fibroblast viability loss – cell-based, RAS-independent, luminescence, dose response (AID 1933); assay type: functional; conditions: Homo sapiens
[5] = target: T2, Zinc finger protein mex-5 (Caenorhabditis elegans, UniProt Q9XUB2); experiment: potency of MEX-5 RNA-binding blockers – biochemical, C. elegans, fluorescence polarization, dose response (AID 1960)
T2 sequence (Q9XUB2 whole entry): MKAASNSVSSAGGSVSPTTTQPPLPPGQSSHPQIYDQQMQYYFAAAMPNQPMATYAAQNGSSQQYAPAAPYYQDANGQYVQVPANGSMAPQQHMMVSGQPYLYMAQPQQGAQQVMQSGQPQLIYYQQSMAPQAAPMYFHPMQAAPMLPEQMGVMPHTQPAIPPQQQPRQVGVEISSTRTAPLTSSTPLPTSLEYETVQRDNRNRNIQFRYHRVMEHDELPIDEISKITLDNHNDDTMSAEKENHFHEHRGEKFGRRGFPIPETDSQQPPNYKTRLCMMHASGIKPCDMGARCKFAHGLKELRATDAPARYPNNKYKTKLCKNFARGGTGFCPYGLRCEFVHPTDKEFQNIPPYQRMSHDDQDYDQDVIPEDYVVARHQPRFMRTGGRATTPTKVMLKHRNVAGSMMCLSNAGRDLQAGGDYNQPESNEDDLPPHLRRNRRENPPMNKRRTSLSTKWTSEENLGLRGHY

BJ [6] = experiment: cells; assay type: functional, cell-based; conditions: Homo sapiens
BJ [7] = experiment: BJ-TERT-LT-ST fibroblast viability loss – cell-based, RAS-independent, luminescence, dose response (AID 1935); assay type: functional; conditions: Homo sapiens;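 note: BJ fibroblasts immortalized with TERT plus LT and ST oncogenes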
[8] = DRD fibroblast viability loss – cell-based, non-viral oncogenic, luminescence, dose response (AID 1934); assay type: functional; conditions: Homo sapiens
[9] = target: Neurotensin receptor type 1 (Homo sapiens, UniProt P30989); assay type: functional;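 note: Image-based confirmatory dose-response assay measuring agonist activity at NTR1; NTR1-expressing U2OS osteosarcoma cells imaged for beta-arrestin GFP spot formation; agonist potency where compounds increase beta-arrestin recruitment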
[10] = target: ADP-ribosylation factor GTPase-activating protein 1 (Rattus norvegicus, UniProt Q62848); experiment: Fluorescence polarization-based biochemical high throughput dose response screening assay to identify inhibitors of ADP-ribosylation factor GTPase activating protein 1 (ARFGAP1).; assay type: functional
NS3 = NS3 (Hepatitis C virus, UniProt A3EZJ3); experiment: NS3h DNA-binding inhibition IC50 – biochemical, fluorescence polarization, ChemBridge library, dose response (AID 743264)
[11] = target: T3, Sentrin-specific protease 1 (Homo sapiens, UniProt Q9P0U3); experiment: SENP1 catalytic domain blockers, concentration series – biochemical, kinetic FRET, dose response (AID 651697); assay type: functional; conditions: read-out: IC50_Mean
[12] = target: T3, Sentrin-specific protease 1; experiment: Dose response confirmation of small molecule inhibitors of the catalytic domain of the SUMO protease, SENP1 in a FRET assay.; assay type: functional; conditions: read-out: IC50_Mean
[13] = A549 cell cytotoxicity, dose response, cytotoxicity control, plate reader, cherry-pick, antagonist series (AID 743412); assay type: functional, cell-based
[14] = toxicity toward HepG2 liver cells – cell-based, plate reader, cherry-pick, antagonist series, cytotoxicity control, dose response (AID 743416); assay type: functional
[15] = inhibition of bursicon-driven LGR2 cAMP signaling – cell-based, HEK293, CRE-luciferase reporter, cherry pick, dose response (AID 743342); assay type: functional
[16] = blockade of melanocortin 4 receptor signaling – cell-based, plate reader, cherry pick, counter-screen for LGR2 antagonist project, dose response (AID 743444); assay type: functional;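 note: transfected HEK 293 cells stimulated with alpha-MSH peptide; potency of inhibitors of the alpha-MSH evoked signal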
BHK-21 = experiment: viability loss in BHK-21 cells – cell-based, plate reader, cherry-pick samples, cytotoxicity control, dose response (AID 687030); assay type: functional; conditions: Mesocricetus auratus
Major prion protein = Major prion protein (Homo sapiens, UniProt P04156); assay type: functional, cell-based

## CC(=O)c1ccc(NC(=O)c2ccc(COc3ccccc3[N+](=O)[O-])o2)cc1
[1]
  EC50: > 29.9 µM (inactive)
[2]
  IC50: > 29.9 µM (inactive)

## COc1cc2c3nnc(-c4ccc(F)cc4)c-3cn(Cc3ccc(C)cc3)c2cc1OC
[3]
  EC50: 2.2 µM (inconclusive)
BJ [4]
  EC50: 5.16 µM (inconclusive)
[5]
  EC50: 1.1 µM (inconclusive)
BJ [6]
  EC50: 17.3 µM (active)
BJ [7]
  EC50: 4.86 µM (active)
[8]
  EC50: 10.4 µM (active)
[9]
  EC50: 2.4 µM (active)
[10]
  IC50: 70 µM (inactive)

## CC1=C(C#N)c2nc(N)c(C#N)c(C)c2C1=Cc1ccc(-c2cccc(C(=O)O)c2)o1
NS3
  IC50: 143 µM (active)

## Cc1cc(C(=O)NCc2ccccc2F)c2ccccc2n1
[11]
  IC50: 17.9 µM (active)
[12]
  IC50: 10.8 µM (active)

## C[C@H](CO)N1C[C@H](C)[C@H](CN(C)C(=O)Nc2ccc(C(F)(F)F)cc2)OCCCC[C@H](C)Oc2ccc(NC(=O)NC3CCCCC3)cc2C1=O
[13]
  AC50: > 52 µM (inactive)
[14]
  AC50: > 52 µM (inactive)
[15]
  AC50: 8.74 µM (active)
[16]
  AC50: 0.898 µM (active)

## CCNC(=O)C[C@H]1CC[C@@H]2[C@H](COC[C@H](O)CN2Cc2ccc(Cl)c(Cl)c2)O1
BHK-21
  AC50: 36.8 µM (active)

## c1ccc2sc(Nc3nc4cc5c(cc4s3)OCO5)nc2c1
Major prion protein
  IC50: 8.57 µM (active)
cells
  IC50: > 138 µM (inactive)
